Assay results from patent US12447136B2, “Use of (5R,7R,10R)-12,15-dioxo-α-selinene in the preparation of drugs” (KUNMING INSTITUTE OF BOTANY, CHINESE ACADEMY OF SCIENCES, priority 2020, dated 2025).

System: MPP^+-induced PC12 cell injury
Assay: Protective effect on MPP+-induced PC12 cell injury (MTS cell viability)
Method: 1. PC12 poorly-differentiated cells were cultured in a medium containing Dulbecco's modified Eagle's medium (DMEM) high glucose+10% fetal bovine serum (FBS)+100 U/mL penicillin-streptomycin, in an incubator at 37° C. and 5% CO2.
2. When growing to 80% to 90%, the PC12 poorly-differentiated cells were subjected to trypsin digestion to obtain a cell suspension.
3. The cell suspension was aspirated into a 15 mL centrifuge tube, followed by centrifugation at 800 rpm for 5 min.
4. After the centrifugation, the centrifuge tube was sterilized with alcohol and placed into an ultra-clean bench, and a supernatant was poured into a waste liquid tank.
5. 5 mL of a new complete medium was added, followed by blowing the medium ten times by a pipette to disperse the cells as much as possible, wherein the blowing should not be performed by too large of a force.
6. 0.02 mL of the cell suspension was taken and added to a cell counting plate for counting.
7. The cell suspension was adjusted to have a cell concentration of 1×10^5 cells/mL, then added to a 96-well plate by 0.1 mL per well, and incubated in a cell incubator.
8. After 23 h, the original medium was aspirated, and a new medium (the formula of which was the same as that in the above step 1) was added; the compound to be tested was added; and 1 h later, MPP^+ was added (a final concentration of the MPP^+ in the system was 750 μM).
9. Experimental design: each group was designed and performed for 3 repetitions:
A blank group included only medium.
A model group (MPP^+) included medium and MPP^+ which was added with a final concentration of 750 μM.
A positive control group (vitamin E) included medium, vitamin E which was added with a final concentration of 0.2 μM, and MPP^+ which was subsequently added with a final concentration of 750 μM.
10. 24 h after adding the MPP^+, MTS was added; after 2 h, values were read for detection.

Row | Molecule | Cell viability (%) (0.2 μM compound or VE + 750 μM MPP^+, PC12 cells, MTS 24 h after MPP^+) | protective activity against MPP^+-induced PC12 cell injury (at concentrations of 1 μM and 2 μM (P<0.001)) | protective effect on MPP^+-induced PC12 cell injury (screening in the MPP^+-induced PC12 cell injury model, no concentration stated)
1 | vitamin E [reference compound] | 75.70 ± 0.64 | – | –
2 | C=C(C=O)[C@@H]1CC[C@@]2(C)CCC=C(C=O)[C@@H]2C1 [PFC-37, (5R,7R,10R)-12,15-dioxo-α-selinene] | – | significant protective activity | significant protective effect
